Measurements published in patent publication EP0428105A2, “Use of quinolyl- and isoquinolyloxazole-2-ones for the production of a medicament for the prevention of glycoprotein enveloped virus infectivity” (MERRELL DOW PHARMACEUTICALS INC., priority 1989, dated 1991).
Structures can show the parent of a compound that is named as a salt.

Assays:
HIV = conditions: CD4+ cells, Fields, et al., Nature, Vol. 333, 19 May 1988, cited from earlier work
RF strain of HIV-1 = experiment: p24 antigen expression from HIV infected T-lymphocytes (C8166 T cell line); assay type: cell-based; conditions: C8166 cells; for p24 Antigen: 3 h pretreatment, culture fluid after 3 days
Experimental: Cells (C8166 T cell line) were pretreated with test compounds at appropriate concentrations for 3 hours prior to virus (RF strain of HIV-1) absorption. Low multiplicity of infection was used and virus absorption period was 1 hour at room temperature. the cells were washed X1 in PBS and resuspended in fresh medium containing the appropriate concentrations of test compound. Cells incubated at 37°C and after 3 days culture fluid was assayed for p24 antigen as a measure of viral replication. Because these compounds were insoluble in water as their free base, they had to be taken up in DMSO and therefore a series of DMSO virus controls were needed for comparison.

[1] = tested on: Moloney murine leukemia virus (MoLV); experiment: in vitro XC plaque assay (SC-1 cells infected with MoLV, XC cell overlay, plaques counted); assay type: cell-based; conditions: compound added 2 hours before virus; for Mean No. of Foci: control 84 foci
Experimental: This assay was performed according to the method of Rowe et al. (Virology, 1970,42, 1136-39) as previously described by L. Hsu, et al. (J. Virological Methods, 1980, 1, 167-77) and T. L. Bowlin and M. R. Proffitt (J. Interferon Res., 1983, 3(1), 19-31). Mouse SC-1 cells (fibroblast) (10⁵) were seeded into each well of 6-well cluster plates (Costar #3506) in 4 ml Minimum Essential Medium (MEM) with 10% Fetal Calf Serum (FCS). Following an 18 hour incubation period (37°C), Moloney murine leukemia virus (MoLV) was applied at a predetermined titer to give optimal (i.e. countable) numbers of virus plaques. Compounds were added 2 hours prior to addition of the virus. Three days later the culture medium was removed, the SC-1 cell monolayers were exposed to UV irradiation (1800 ergs), and rat XC cells (10⁶) were seeded into each well in 4 ml MEM. Following an additional 3 day incubation (37°C), these cells were fixed with ethyl alcohol (95%) and stained with 0.3% crystal violet. Plaques were then counted under low magnification.

SMILES | HIV cell surface binding (HIV) | viral infectivity (HIV; accumulation of virus particles at the cell surface) | p24 Antigen (RF strain of HIV-1; 1 µg/ml, vehicle DMSO 0.01%, DMSO control 1027 pg/ml) | p24 Antigen (RF strain of HIV-1; 10 µg/ml, vehicle DMSO 0.1%, DMSO control 2408 pg/ml) | inhibition at 1 µg/mL (RF strain of HIV-1; Human immunodeficiency virus 1, 72 h, 1 µg/ml, vehicle DMSO 0.01%, 3 days) | inhibition at 10 µg/mL (RF strain of HIV-1; Human immunodeficiency virus 1, 72 h, 10 µg/ml, vehicle DMSO 0.1%, 3 days) | Mean No. of Foci ([1]; 0.10 µg/ml) | Mean No. of Foci ([1]; 1 µg/ml) | inhibition at 0.1 µg/mL ([1]; Murine leukemia virus, SC-1, 0.10 µg/ml) | inhibition at 1 µg/mL ([1]; Murine leukemia virus, SC-1, 1 µg/ml)
CC1CNCCN1S(=O)(=O)c1cccc2cnccc12 (stereo not shown) [1,5-isoquinolinesulphonyl-2-methylpiperazine dihydrochloride] | does not interfere with HIV cell surface binding | inhibition of viral infectivity | – | – | – | – | – | – | – | –
CCCc1[nH]c(=O)oc1-c1ccnc2ccccc12 [Test Compound, 4-propyl-5-(4-quinolinyl)-2(3H)-oxazolone] | – | – | 745 pg/mL | 710 pg/mL | 28% | 71% | 84 | 10 | 0% | 88.1%
